Source: patent EP4559896A1, “PH-SENSITIVE CATIONIC LIPID AND LIPID NANOPARTICLE” (National University Corporation Hokkaido University, priority 2022, dated 2024)

Experiments:
[1] = encapsulation rate of lipid nanoparticles (RiboGreen); assay type: physicochemical; settings: Fluc mRNA-loaded lipid nanoparticles
Procedure: The encapsulation rate of the lipid nanoparticles was determined by measuring the amount of encapsulated nucleic acid (mRNA) using RiboGreen (manufactured by Life Technologies), which is an RNAintercalator. The amount of mRNA was quantified based on a calibration curve prepared from a dilution series solution of mRNA at a known concentration.
Specifically, 10 mM HEPES buffer (pH 7.4), 10 w/v% Triton X-100, and RiboGreen were mixed at 978.8 µL, 20 µL, and 1.25 µL per 10 wells, respectively, to obtain a Triton(+) buffer. A Triton(-) buffer was obtained in replacing Triton X-100 with 10 mM HEPES buffer (pH 7.4). 100 µL/well of the sample was added to a black 96-well plate for fluorescence measurement, and 100 µL/well of Triton(+) buffer or Triton(-) buffer was added. After the plate was gently shaken on a shaking incubator (SI-300, manufactured by AS ONE) (700 rpm, 30 seconds), the fluorescence intensity of each well was measured using a microplate reader (VARIOSKAN LUX, manufactured by Thermo Fisher Scientific) (wavelength Ex/Em=500 nm/525 nm), and the nucleic acid encapsulation rate (%) was calculated.

[2] = average particle size and polydispersity index by dynamic light scattering; assay type: physicochemical; settings: Fluc mRNA-loaded lipid nanoparticles
Procedure: The average particle size (number average value), ζ-average particle size, and polydispersity index (PdI) of the lipid nanoparticles in PBS(-) (pH 7.4), and the zeta potential in 10 mM HEPES buffer (pH 7.4) were measured using an analyzer "Zetasizer Nano ZS ZEN3600" (manufactured by Malvern) utilizing dynamic light scattering.

[3] = system: BALB/c mice; assay: Fluc activity in tissues of mice administered with Fluc mRNA-loaded lipid nanoparticles; assay type: in vivo; settings: for luciferase activity in the heart compared with control mice (CL4F6-containing lipid nanoparticles) / luciferase activity in the lung compared with control mice (CL4F6-containing lipid nanoparticles) / luciferase activity in the muscle compared with control mice (CL4F6-containing lipid nanoparticles) / luciferase activity in the spleen compared with control mice (CL4F6-containing lipid nanoparticles): TOT/DSPC/chol/PEG-DMG=65/15/20/1.5, control CL4F6/DSPC/chol/PEG-DMG=50/10/40/1.5 (mol%)
Procedure: Lipid nanoparticles were administered to mice by intravenous injection into the tail vein using a 27G needle. Unless otherwise specified, BALB/c mice (4 to 5 weeks old, female) were used.
First, BALB/c mice (female, 4 weeks old) were intravenously injected with lipid nanoparticles encapsulating Fluc mRNA (Fluc mRNA-loaded lipid nanoparticles) at a dose of 0.01 mg mRNA/kg. Six hours after intravenous injection, the mice were euthanized, each tissue was collected, frozen in liquid nitrogen, and stored at -80°C. The tissues were homogenized in passive lysis buffer (manufactured by Promega) using a bead-type cell disruptor (Micro Smash MS-100R, manufactured by TOMY Seiko). Tissue debris was removed by centrifugation, and the supernatant was collected. Fluc activity in the supernatant was measured using the Luciferase Assay System (E1500, manufactured by Promega) according to the manufacturer's protocol. Luminescence was measured using a luminometer (Luminescencer-PSN, manufactured by ATTO). Protein concentration was determined using a commercially available assay kit (BCA Protein Assay Kit, manufactured by Pierce). Fluc activity was expressed as relative light units (RLU) per mg of protein.
Specifically, first, each lipid nanoparticle was intravenously administered into the tail vein of mice in an amount of 0.2 mg/kg of Fluc mRNA, and 6 hours after administration of the lipid nanoparticles, about 50 mg each of the liver, spleen, lung, heart, brain, and muscle was collected and stored frozen. 500 µL of passive lysis buffer (manufactured by Promega) was added to each tube containing the collected organ. The liver was homogenized at 4000 rpm for 20 seconds twice, the spleen, kidney, lung, and heart were homogenized at 5000 rpm for 20 seconds twice, and the muscle was homogenized at 5000 rpm for 20 seconds four times; then, the homogenate was centrifuged at 13000 rpm at 4°C for 10 minutes, and the supernatant was collected as a sample for measurement. The liver and spleen were diluted 100 times with passive lysis buffer. 50 µL of a measurement sample (tissue supernatant) was mixed with 50 µL of luciferase assay buffer of the Luciferase Assay System (E1500, manufactured by Promega) previously added in a test tube by pipetting, and the amount of luminescence was measured with a luminometer. Protein concentration was determined using a commercially available assay kit (BCA Protein Assay Kit, manufactured by Pierce). Fluc activity was expressed as relative light units (RLU) per mg of protein.

[4] = TOT/DSPC/chol/PEG-DMG=65/15/20/1.5 (mol%)
[5] = TOT-4/DSPC/chol/PEG-DMG=65/15/20/1.5, CL4F6/DSPC/chol/PEG-DMG=50/10/40/1.5 (mol%)
[6] = Example 15, TOT-4/PC/chol/PEG-DMG=65/15/20/1 (mol%), PC = DSPC, i.v. tail vein
[7] = Example 16, TOT/DSPC/chol/PEG-DMG=65/15/20/1.5 (mol%), i.v. tail vein

| Compound | Encapsulation Rate [1, 4] | PdI [2, 4] | ζ-Average Particle Size [2, 4] | luciferase activity in the lung compared with control mice (CL4F6-containing lipid nanoparticles) ([3]; Example 33, i.v. tail vein) | further results |
| --- | --- | --- | --- | --- | --- |
| CCCCCCCC/C=C\CCCCCCCC(=O)OCC(COC(=O)CCCCCCC/C=C\CCCCCCCC)(COC(=O)CCCCCCC/C=C\CCCCCCCC)NC(=O)CNC [TOT-7, 2-(2-(methylamino)acetamido)-2-((oleoyloxy)methyl)propane-1,3-diyl dioleate] | 92.4% | 0.232 | 128.0 nm | – | luciferase activity in the heart compared with control mice (CL4F6-containing lipid nanoparticles) ([3]; Example 33, i.v. tail vein): higher |
| CCCCCCCC/C=C\CCCCCCCC(=O)OCC(COC(=O)CCCCCCC/C=C\CCCCCCCC)(COC(=O)CCCCCCC/C=C\CCCCCCCC)NC(=O)CCN(CC)CC [TOT-4, 2-(3-(diethylamino)propanamido)-2-((oleoyloxy)methyl)propane-1,3-diyl dioleate] | 83.5% | 0.157 | 134.3 nm | higher | Encapsulation Rate [1, 5]: 0.157%; Number Average Particle Size [2, 5]: 33.5 nm; ζ-Average Particle Size [2, 5]: 134.3 nm; Fluc activity (RLU/mg protein) in the liver and spleen ([3]; Example 13, TOT/DOPE/chol/PEG-DMG=60/15/25/1.0 (mol%), i.v. tail vein): very high; Fluc activity in the spleen compared with the liver ([3]; Example 15, TOT-4/PC/chol/PEG-DMG=65/15/20/1 (mol%), PC = DPPC, i.v. tail vein): higher Fluc activity in the spleen than in the liver; Fluc activity (RLU/mg protein) in the liver and spleen ([3]; Example 15, TOT-4/PC/chol/PEG-DMG=65/15/20/1 (mol%), PC = DSPC, DPPC, POPC, or DOPC, i.v. tail vein): confirmed; Fluc activity (RLU/mg protein) in the liver [3, 6]: relatively suppressed; Fluc activity in the spleen compared with the liver [3, 6]: higher Fluc activity in the spleen than in the liver; Fluc activity (RLU/mg protein) in the spleen [3, 7]: very high; gene expression in the spleen, times higher than Fluc mRNA-loaded lipid nanoparticles using RNA-LPX ([3]; Example 17, TOT-4/DSPC/chol/PEG-DMG=65/15/20/1.5 (mol%) versus RNA-LPX (DOTMA/DOPE=50/50 mol%), i.v. tail vein): 24 times; gene expression in the spleen and liver ([3]; Example 18, TOT-4/DSPC/chol/PEG-DMG=65/15/20/1.5 (mol%), similar to CL4F6/DSPC/chol/PEG-DMG=50/10/40/1.5, i.v. tail vein): high; luciferase activity in the spleen, lung, brain, heart, and muscle compared with CL4F6-containing lipid nanoparticles ([3]; Example 19, TOT-4/DSPC/chol/PEG-DMG=65/15/20/1.5 versus CL4F6/DSPC/chol/PEG-DMG=50/10/40/1.5 (mol%), i.v. 0.2 mg/kg of Fluc mRNA, 6 hours, N=3): higher; luciferase activity in the brain ([3]; Example 33, TOT/DSPC/chol/PEG-DMG=65/15/20/1.5 (mol%), i.v. tail vein): remarkably high; luciferase activity in the heart compared with control mice (CL4F6-containing lipid nanoparticles) ([3]; Example 33, i.v. tail vein): very high; luciferase activity in the muscle compared with control mice (CL4F6-containing lipid nanoparticles) ([3]; Example 33, i.v. tail vein): very high; luciferase activity in the spleen compared with control mice (CL4F6-containing lipid nanoparticles) ([3]; Example 33, i.v. tail vein): higher |
| CCCCCCCC/C=C\CCCCCCCC(=O)OCC(COC(=O)CCCCCCC/C=C\CCCCCCCC)(COC(=O)CCCCCCC/C=C\CCCCCCCC)NC(=O)C1CCN(C)C1 (centres unmarked) [TOT-20, 2-(1-methylpyrrolidine-3-carboxamide)-2-((oleoyloxy)methyl)propane-1,3-diyl dioleate] | 94.7% | 0.263 | 201.8 nm | – | – |
| CCCCCCCC/C=C\CCCCCCCC(=O)OCC(COC(=O)CCCCCCC/C=C\CCCCCCCC)(COC(=O)CCCCCCC/C=C\CCCCCCCC)NC(=O)CCCN(C)C [TOT-2, 2-(4-(dimethylamino)butanamido)-2-((oleoyloxy)methyl)propane-1,3-diyl dioleate] | 92.3% | 0.347 | 166.2 nm | higher | Fluc activity (RLU/mg protein) in the liver [3, 7]: confirmed in the liver in all the mice except for those administered with Fluc mRNA-loaded lipid nanoparticles using TOT-2 |
| 7-(4-(diisopropylamino)butyl)-13-((2-hexylnonanoyl)oxy)-7-hydroxytridecyl 2-hexyldecanoate [CL4F6, reference compound] | – | – | – | – | Number Average Particle Size [2, 5]: 59.4 nm; PdI [2, 5]: 99.0; ζ-Average Particle Size [2, 5]: 90.7 nm |
| CCCCCCCC/C=C\CCCCCCCC(=O)OCC(COC(=O)CCCCCCC/C=C\CCCCCCCC)(COC(=O)CCCCCCC/C=C\CCCCCCCC)NC(=O)C1CCN(C)CC1 [TOT-3, 2-(1-methylpiperidine-4-carboxamide)-2-((oleoyloxy)methyl)propane-1,3-diyl dioleate] | 92.3% | 0.344 | 167.2 nm | higher | – |

Second part, led by results:

| Encapsulation Rate [1, 4] | PdI [2, 4] | ζ-Average Particle Size [2, 4] | Compound | luciferase activity in the lung compared with control mice (CL4F6-containing lipid nanoparticles) ([3]; Example 33, i.v. tail vein) | further results |
| --- | --- | --- | --- | --- | --- |
| 92.2% | 0.319 | 130.0 nm | CCCCCCCC/C=C\CCCCCCCC(=O)OCC(COC(=O)CCCCCCC/C=C\CCCCCCCC)(COC(=O)CCCCCCC/C=C\CCCCCCCC)NC(=O)C1CCN(CC)CC1 [TOT-18, 2-(1-ethylpiperidine-4-carboxamide)-2-((oleoyloxy)methyl)propane-1,3-diyl dioleate] | higher | luciferase activity in the muscle compared with control mice (CL4F6-containing lipid nanoparticles) ([3]; Example 33, i.v. tail vein): very high |
| 87.6% | 0.180 | 99.2 nm | CCCCCCCC/C=C\CCCCCCCC(=O)OCC(COC(=O)CCCCCCC/C=C\CCCCCCCC)(COC(=O)CCCCCCC/C=C\CCCCCCCC)NC(=O)CCN(C)CC [TOT-16, 2-(3-(ethyl(methyl)amino)propanamido)-2-((oleoyloxy)methyl)propane-1,3-diyl dioleate] | – | luciferase activity in the heart compared with control mice (CL4F6-containing lipid nanoparticles) ([3]; Example 33, i.v. tail vein): higher; luciferase activity in the muscle compared with control mice (CL4F6-containing lipid nanoparticles) ([3]; Example 33, i.v. tail vein): higher; luciferase activity in the spleen compared with control mice (CL4F6-containing lipid nanoparticles) ([3]; Example 33, i.v. tail vein): higher |
| 95.4% | 0.190 | 102.5 nm | CCCCCCCC/C=C\CCCCCCCC(=O)OCC(COC(=O)CCCCCCC/C=C\CCCCCCCC)(COC(=O)CCCCCCC/C=C\CCCCCCCC)NC(=O)CN [TOT-6, 2-(2-aminoacetamido)-2-((oleoyloxy)methyl)propane-1,3-diyl dioleate] | – | – |
| 85.9% | 0.324 | 138.0 nm | CCCCCCCC/C=C\CCCCCCCC(=O)OCC(COC(=O)CCCCCCC/C=C\CCCCCCCC)(COC(=O)CCCCCCC/C=C\CCCCCCCC)NC(=O)CCN(C)C [TOT-1, 2-(3-(dimethylamino)propanamido)-2-((oleoyloxy)methyl)propane-1,3-diyl dioleate] | – | – |
| 85.7% | 0.213 | 87.1 nm | CCCCCCCC/C=C\CCCCCCCC(=O)OCC(COC(=O)CCCCCCC/C=C\CCCCCCCC)(COC(=O)CCCCCCC/C=C\CCCCCCCC)NC(=O)[C@@H](N)CO [TOT-8, 2-((S)-2-amino-3-hydroxypropanamido)-2-((oleoyloxy)methyl)propane-1,3-diyl dioleate] | – | – |
